Reference: article PMC12171319, “3‐Oxabicyclo[3.1.1]heptane as an Isostere of meta‐Benzene” (Angewandte Chemie (International Ed. in English), 2025)
Values after ≈ are worked out from the molar mass of the structure shown. Where two headings read alike, the source gives them in different places. Each block holds one compound with its values, some of them ahead of it.

Assays:
[1] = test system: Hedgehog signaling pathway; conditions: Mus musculus
[2] = Metabolic stability in human liver microsomes; type: in vitro ADME; conditions: both sexes, human; for remaining at 40 min, 2 µM / remaining at 7 min, 2 µM / remaining at […], 2 µM / remaining at 25 min, 2 µM: pH 7.4, Table S7, 2nd batch; for microsomal CLint at 2 μM: read-out: CLint: experimental metabolic stability in human liver microsomes; for remaining at […], 2 µM: 15 min
Experimental: 9. Metabolic Stability in Human Liver Microsomes
The objective of this study was to determine the metabolic stability of 3 test articles (EN300- […]
in human liver microsomes at five-time points over 40 minutes using HPLC-MS. Metabolic stability is defined as the percentage of parent compound lost over time in the presence of a metabolically active test system.
Potassium phosphate monobasic (Bio-Basic, Canada; Lot #N9016010)
Potassium phosphate dibasic (Bio-Basic, Canada; Lot #MA7100050) […]
Glucose-6-phosphate dehydrogenase from baker's yeast, type XV (Sigma-Aldrich, USA; Cat […]
D-Glucose-6-phosphate sodium salt (Sigma-Aldrich, USA; Cat #G7879-1G)
NADPH tetrasodium salt (BLD Pharmatech Ltd., Cat #BD116582)
Verapamil hydrochloride (Sigma Aldrich, USA; Cat #V4629)
Niclosamide (Sigma-Aldrich, USA; Cat #N3510)
DMSO stock solutions of the tested compounds 20 mM
Gradient HPLC system (Shimadzu)
Triple quadrupole mass-detector API 3000 with TurboIonSpray Ion Source (AB Sciex, Canada) […]
Multichannel pipettors 1-30 µL, 2-125 µL, 30-850 µL (Thermo Scientific) […]
All measurements were performed using the Shimadzu HPLC system including vacuum degasser, gradient pumps, reverse phase HPLC column, column oven, and autosampler. Mass spectrometric analysis was performed using an API 3000 mass spectrometer from Applied Biosystems/MDS Sciex (AB Sciex) with Turbo V ion source and TurboIonspray interface. The […]
and system control were performed using Analyst 1.6.3 software from AB Sciex.
Microsomal incubations were carried out in 96-well plates in 5 aliquots of 30 μL each (one for each time point). Liver microsomal incubation medium comprised of phosphate buffer (100 mM, pH 7.4), MgCl2 (3.3 mM), NADPН (3 mM), glucose-6-phosphate (5.3 mM), glucose-6-phosphate dehydrogenase (0.67 units/mL) with 0.42 mg of liver microsomal protein per mL. In the control reactions, the NADPH-cofactor system was substituted with phosphate buffer. Test compounds […]
100 rpm. Five-time points over 40 minutes were analyzed. The reactions were stopped by adding 5 volumes of acetonitrile with internal standard to incubation aliquots, followed by protein sedimentation by centrifuging at 5500 rpm for 5 min. Each reaction was performed in duplicates.
Supernatants were analyzed using the HPLC system coupled with a tandem mass spectrometer.
The elimination constant (kel), half-life (t1/2), and intrinsic clearance (Clint) were determined in a plot of […] versus time, using linear regression analysis:1
1 In order to indicate the quality of the linear regression analysis, the R2 (determination coefficient) values are provided.
In some cases, the last time point is excluded from the calculations to ensure acceptable logarithmic linearity of decay.

in vitro = conditions: human; for efflux ratio at 90 min, 10 µM: Caco-2, pH 7.4; for Papp A→B at 90 min, 10 µM: Caco-2, pH 7.4, Papp (AB); for Papp B→A at 90 min, 10 µM: Caco-2, pH 7.4, Papp (BA)
[3] = Kinetic solubility in phosphate-buffered saline, pH 7.4; type: physicochemical; conditions: 25 °C, pH 7.4, aqueous buffer, kinetic from dmso stock; for solubility at 2 h: PBS solubility
Experimental: page 239: 7. […] The data […] analysis software. […] page 240: Methods Kinetic solubility assay was performed according to Enamine's aqueous solubility SOP. Briefly, […] theoretical concentration of 400 μM in duplicates in phosphate-buffered saline pH 7.4 […] The experimental compound dilutions in PBS were further allowed to equilibrate at 25 °C on a thermostatic shaker for two hours and then filtered through HTS filter plates using a vacuum manifold. The filtrates of test […] prepared to theoretical concentrations of 0 μM (blank), 10 μM, 25 μM, 50 μM, 100 μM, and 200 […] Ondansetron was used as a reference compound to control proper assay performance. 200 μL of each sample was transferred to a 96-well plate and measured in the 230-550 nm range with a 5 nm step. The concentrations of compounds in PBS filtrate are calculated using a dedicated Microsoft Excel calculation script. Proper absorbance wavelengths for calculations are selected for each compound manually based on absorbance maximums (absolute absorbance unit values for the minimum and maximum concentration points within the 0 - 3 OD range). Each final dataset is visually evaluated by the operator, and goodness of fit (R2) is calculated for each calibration curve. […] close to the upper limit of the range may have higher actual solubility (e.g. 5'-deoxy-5- fluorouridine). The calibration curves are shown in Appendix*. […] Compound ID PBS solubility, pH 7.4, μM SE […] Ondansetron 128 126 127** 1.1 EN300-7362818 6 6 6 0.2 (Sonidegib) BCHep-Sonidegib (50) 5 3 4 0.9 Table S3. 2nd batch PBS solubility, pH 7.4, μM Compound ID SE […] Ondansetron 124 124 124** 0.1 EN300-45381956 (51) 34 34 34 0.2 *Goodness of fit (R2) in all titration curves as well as the variations between repeat measurements indicates a high quality of the experimental data in the current batch of test articles. **Ondansetron solubility data are consistent with those previously obtained. […]

[4] = Table S5, 2nd batch
[5] = NIH3T3, read-out: pIC50, Hedgehog signaling pathway, experiment with EN300-45381956 (51) (converted), calculated from IC50
[6] = human liver microsomes, pH 7.4, human liver microsomes, read-out: t1/2: experimental half-time of a metabolic decomposition
[7] = liver microsomes, 2 µM, read-out: % Remaining, Mean of 2
[8] = pH 7.4, LogD, pH 7.4 (overall of 3 incubations)
[9] = pH 7.4, logD (7.4): experimental distribution coefficient in n-octanol/phosphate-buffered saline, pH 7.4
[10] = Mean, 10 µM, 90 min, no verapamil
[11] = replicate 1, 10 µM, 90 min, no verapamil
[12] = replicate 2, 10 µM, 90 min, no verapamil

IC50 ([1]; NIH3T3, read-out: IC50 (HH signal): inhibition of the Hedgehog signaling pathway, Gli reporter NIH3T3 cell line): 96 nM
IC50 [1, 5]: 100 nM
remaining at 40 min, 2 µM ([2]; human liver microsomes, no NADPH, read-out: % Remaining without cofactor, Mean of 2): 104%
half-life at 2 μM [2, 6]: 1.02 h
k el at 2 µM ([2]; human liver microsomes, pH 7.4, Table S7, 2nd batch): 0.000183 s⁻¹
half-life at 2 μM ([2]; human liver microsomes, pH 7.4, Table S7, 2nd batch, read-out: t1/2): 1.01 h
microsomal CLint at 2 μM ([2]; human liver microsomes, pH 7.4): 28 µL/min/mg
remaining at 7 min, 2 µM ([2]; liver microsomes, 2 µM): 96%
remaining at […], 2 µM ([2]; liver microsomes, 2 µM): 89%
remaining at 25 min, 2 µM ([2]; liver microsomes, 2 µM): 77%
remaining at 40 min, 2 µM [2, 7]: 64%
efflux ratio at 90 min, 10 µM (in vitro): 1.5
Papp A→B at 90 min, 10 µM (in vitro; Mean): 5.4 ×10⁻⁶ cm/s
Papp A→B at 90 min, 10 µM (in vitro; replicate 1): 6.3 ×10⁻⁶ cm/s
Papp A→B at 90 min, 10 µM (in vitro; replicate 2): 4.5 ×10⁻⁶ cm/s
Papp B→A at 90 min, 10 µM (in vitro; Mean): 8 ×10⁻⁶ cm/s
Papp B→A at 90 min, 10 µM (in vitro; replicate 1): 7.3 ×10⁻⁶ cm/s
Papp B→A at 90 min, 10 µM (in vitro; replicate 2): 8.7 ×10⁻⁶ cm/s
recovery at 90 min, 10 µM (in vitro; Caco-2, pH 7.4, Recovery A-B in presence of Verapamil, Mean): 51%
recovery at 90 min, 10 µM (in vitro; Caco-2, pH 7.4, Recovery A-B in presence of Verapamil, replicate 1): 53%
recovery at 90 min, 10 µM (in vitro; Caco-2, pH 7.4, Recovery A-B in presence of Verapamil, replicate 2): 49%
recovery at 90 min, 10 µM (in vitro; Caco-2, pH 7.4, Recovery A-B, Mean): 43%
recovery at 90 min, 10 µM (in vitro; Caco-2, pH 7.4, Recovery A-B, replicate 1): 44%
recovery at 90 min, 10 µM (in vitro; Caco-2, pH 7.4, Recovery A-B, replicate 2): 43%
recovery at 90 min, 10 µM (in vitro; Caco-2, pH 7.4, Recovery B-A in presence of Verapamil, Mean): 77%
recovery at 90 min, 10 µM (in vitro; Caco-2, pH 7.4, Recovery B-A in presence of Verapamil, replicate 1): 69%
recovery at 90 min, 10 µM (in vitro; Caco-2, pH 7.4, Recovery B-A in presence of Verapamil, replicate 2): 86%
recovery at 90 min, 10 µM (in vitro; Caco-2, pH 7.4, Recovery B-A, Mean): 70%
recovery at 90 min, 10 µM (in vitro; Caco-2, pH 7.4, Recovery B-A, replicate 1): 71%
recovery at 90 min, 10 µM (in vitro; Caco-2, pH 7.4, Recovery B-A, replicate 2): 69%
solubility kinetic at 2 h [3]: 34 µM (≈ 16.7 µg/mL)
solubility at 2 h ([3]; pH 7.4, Incubation 1): 34 µM (≈ 16.7 µg/mL)
solubility at 2 h ([3]; pH 7.4, Incubation 2): 34 µM (≈ 16.7 µg/mL)
solubility at 2 h ([3]; pH 7.4, Mean): 34 µM (≈ 16.7 µg/mL)
D ([4]; incubation 1): 7.16E+04
D ([4]; incubation 2): 6.24E+04
D ([4]; incubation 3): 6.33E+04
logD at 1 h (physchem; pH 7.4, LogD, pH 7.4): ≥ 4.5
logD at 1 h (physchem; [8]): ≥ 4.5
logD at 1 h (physchem; [9]): ≥ 4
SMILES: CC1CN(c2ccc(NC(=O)C34COCC(c5ccc(OC(F)(F)F)cc5)(C3)C4)cn2)CC(C)O1 (stereo not drawn) [Compound 51]

IC50 ([1]; NIH3T3, read-out: IC50, Hedgehog signaling pathway, mean ± SD from 2 independent experiments, experiment with BCH-Sonidegib (50)): 6.4 ± 0.5 nM
IC50 ([1]; NIH3T3, read-out: IC50, Hedgehog signaling pathway, reference compound in the experiment with EN300-45381956 (51)): 1.46 nM
IC50 [1, 5]: 1.58 nM
half-life at 2 μM [2, 6]: 1.73 h
microsomal CLint at 2 μM ([2]; human liver microsomes, pH 7.4): 16 µL/min/mg
remaining at 7 min, 2 µM ([2]; liver microsomes, 2 µM): 100%
remaining at […], 2 µM ([2]; liver microsomes, 2 µM): 94%
remaining at 25 min, 2 µM ([2]; liver microsomes, 2 µM): 89%
remaining at 40 min, 2 µM [2, 7]: 77%
remaining at 40 min, 2 µM ([2]; liver microsomes, no NADPH, read-out: % Remaining without cofactor, Mean of 2): 103%
k el at 2 µM ([2]; liver microsomes, pH 7.4, Table S7, 2nd batch): 0.000117 s⁻¹
half-life at 2 μM ([2]; liver microsomes, pH 7.4, Table S7, 2nd batch, read-out: t1/2): 1.73 h
efflux ratio at 90 min, 10 µM (in vitro): 0.3
Papp A→B at 90 min, 10 µM (in vitro; [10]): 2.8 ×10⁻⁶ cm/s
Papp A→B at 90 min, 10 µM (in vitro; [11]): 2.9 ×10⁻⁶ cm/s
Papp A→B at 90 min, 10 µM (in vitro; [12]): 2.7 ×10⁻⁶ cm/s
Papp B→A at 90 min, 10 µM (in vitro; [10]): 0.9 ×10⁻⁶ cm/s
Papp B→A at 90 min, 10 µM (in vitro; [11]): 1 ×10⁻⁶ cm/s
Papp B→A at 90 min, 10 µM (in vitro; [12]): 0.9 ×10⁻⁶ cm/s
recovery at 90 min, 10 µM (in vitro; Caco-2, pH 7.4, Recovery A-B in presence of Verapamil, Mean, with verapamil): 65%
recovery at 90 min, 10 µM (in vitro; Caco-2, pH 7.4, Recovery A-B in presence of Verapamil, replicate 1, with verapamil): 67%
recovery at 90 min, 10 µM (in vitro; Caco-2, pH 7.4, Recovery A-B in presence of Verapamil, replicate 2, with verapamil): 63%
recovery at 90 min, 10 µM (in vitro; Caco-2, pH 7.4, Recovery A-B, Mean, no verapamil): 36%
recovery at 90 min, 10 µM (in vitro; Caco-2, pH 7.4, Recovery A-B, replicate 1, no verapamil): 35%
recovery at 90 min, 10 µM (in vitro; Caco-2, pH 7.4, Recovery A-B, replicate 2, no verapamil): 37%
recovery at 90 min, 10 µM (in vitro; Caco-2, pH 7.4, Recovery B-A in presence of Verapamil, Mean, with verapamil): 61%
recovery at 90 min, 10 µM (in vitro; Caco-2, pH 7.4, Recovery B-A in presence of Verapamil, replicate 1, with verapamil): 63%
recovery at 90 min, 10 µM (in vitro; Caco-2, pH 7.4, Recovery B-A in presence of Verapamil, replicate 2, with verapamil): 60%
recovery at 90 min, 10 µM (in vitro; Caco-2, pH 7.4, Recovery B-A, Mean, no verapamil): 45%
recovery at 90 min, 10 µM (in vitro; Caco-2, pH 7.4, Recovery B-A, replicate 1, no verapamil): 46%
recovery at 90 min, 10 µM (in vitro; Caco-2, pH 7.4, Recovery B-A, replicate 2, no verapamil): 43%
solubility kinetic at 2 h [3]: 6 µM (≈ 2.91 µg/mL)
solubility at 2 h ([3]; pH 7.4, Incubation 1): 6 µM (≈ 2.91 µg/mL)
solubility at 2 h ([3]; pH 7.4, Incubation 2): 6 µM (≈ 2.91 µg/mL)
solubility at 2 h ([3]; pH 7.4, Mean): 6 µM (≈ 2.91 µg/mL)
D ([4]; incubation 1): 5.61E+04
D ([4]; incubation 2): 5.60E+04
D ([4]; incubation 3): 6.79E+04
logD at 1 h (physchem; pH 7.4, LogD, pH 7.4): ≥ 4.5
logD at 1 h (physchem; [8]): ≥ 4.5
logD at 1 h (physchem; [9]): ≥ 4
SMILES: Cc1c(C(=O)Nc2ccc(N3C[C@@H](C)O[C@@H](C)C3)nc2)cccc1-c1ccc(OC(F)(F)F)cc1 [Sonidegib]
